Experimental data reported in patent US20240245696A1, “INHIBITORS OF DNA PK AND USES THEREOF” (BioVentures, LLC, priority 2017, published 2024).
Entries after “also recorded” stand apart in the source; their conditions may differ.

Experiments:
PBMC = experiment: Cell viability assay (CELLTITER 96 AQUEOUS One) in PBMC; assay type: cell-based, human; details: various concentrations, 48 hours
Protocol: (§1) Cell Culture: Human peripheral blood mononuclear cells (PBMC,) and Jurkat cells were purchased from ATCC (PCS-800-011, Manassas, VA). Cells were maintained at 37° C. in a humidified atmosphere composed of 5% CO2. Jurkat cells were cultured in RPMI 1640 medium which was supplemented with 10% FCS and human PBMC was cultured in RPMI 1640 medium which was supplemented with 10% FCS and pen/strep. Both Jurkat cells and PBMC were stimulated with PHA (50 ng/mL) and PMA (1 μg/mL) for 24 hours prior to harvesting for IL-2 detection or 6 hours prior for western blot analysis. The NU7441 DNA-PKcs inhibitor was added at varying concentrations at the time of stimulation. Cell viability assay: Cell viability assay was performed using Promega CELLTITER 96 AQUEOUS One Solution Cell Proliferation Assay (Madison, WI) and following the manufacturer's protocol. Briefly, 100 μL of PBMC or Jurkat cells were plated in a 96-well plate and treated with various concentration of NU7441 for 48 hours. CELLTITER solution (20 μL/100 μL of cell suspension) was added to the cells and the plate was incubated for 3 hours at 37° C. and the absorbance at 490 nm was recorded using SynergyHTX (BioTek, Winooski, VT) plate reader.

Th17 T cells = experiment: qPCR on T cell markers, Th17 differentiation of naïve CD4+ T cells; assay type: cell-based; details: naïve CD4+ T cells from mouse spleens
Protocol: qPCR on T cell markers: Naïve CD4+ T cells were isolated by standard methods from the spleens of Balbc mice. T cells were grown in culture and treated with cytokines specific for differentiate into Th1 and Th17 subtypes. Additionally, T cells were cultured with NU7441 and FK506. qPCR was performed looking at the following markers: Batf3, RORyt, IL17, IL22, TGFBeta, Lymphotoxin, T-Bet.

IL-2 = experiment: Secreted IL-2 ELISA, Jurkat cells stimulated with PMA+PHA; assay type: cell-based, human; details: for level of IL-2: PMA+PHA 24 hour stimulation
Protocol: Cell Culture: Human peripheral blood mononuclear cells (PBMC,) and Jurkat cells were purchased from ATCC (PCS-800-011, Manassas, VA). Cells were maintained at 37° C. in a humidified atmosphere composed of 5% CO2. Jurkat cells were cultured in RPMI 1640 medium which was supplemented with 10% FCS and human PBMC was cultured in RPMI 1640 medium which was supplemented with 10% FCS and pen/strep. […] The NU7441 DNA-PKcs inhibitor was added at varying concentrations at the time of stimulation.
Detection of secreted IL-2: Secreted IL-2 was detected by Human IL-2 ELISA Kit from Thermo Scientific (Waltham, MA). The manufacturer's protocol was followed. […] Jurkat cells stimulated with the anti-CD28/CD3 dynabeads were done so according to the manufacturer's protocol at a 1:1 ratio for 24 hours prior to harvesting. After stimulation, supernatant samples of Jurkat cells or PBMCs (2 million cells/mL) were collected and diluted 10 times before the assay. IL-2 standards and samples (50 μL) and Biotinylated antibody reagents (50 μL) were added to each well and the plate was incubated for 3 hours at room temperature. The plate was washed 3 times and 100 μL of Streptavidin-HRP solution was added. After 30 minutes of incubation at room temperature, the plate was washed 3 times. TMB substrate (100 μL) was added and incubated for 30 minutes in the dark at room temperature. Stop solution was added and the absorbance of each well was read at 450 nm using the plate reader.

CHK2 = experiment: Western blot of phosphorylated CHK2 (Thr68) in activated Jurkat cells; assay type: cell-based, human; details: Jurkat activated with PMA+PHA
Protocol: (§2) Cell lysis and nuclear extract: Cells were washed with cold PBS twice and centrifuged at 5000 rpm for 5 minutes. For the nuclear extract, pellets were suspended with 800 μL of 10 mN HEPES lysis buffer (10 mM HEPES at pH 7.9, 10 mM KCl, 1 mM DTT, and 1× protease and phosphatase inhibitor) and incubated on ice for 15 minutes. 50 μL of NP-40 (10% in water) was added and the pellets were mixed for 10 seconds. Lysates were centrifuged for 5 minutes at 4° C. at 13,000 rpm. The supernatant solution which is containing the cytosolic fraction was discarded and the pellets were resuspended in 20 mM HEPES lysis buffer (20 mM HEPES at pH 7.9, 0.4 M NaCl, 1 mM DTT, and 1× protease, and phosphatase inhibitor) and incubated on ice for 15 minutes with intermittent mixing. Lysates were centrifuged for 10 minutes at 4° C. at 13,000 rpm. The supernatant containing nuclear extract was stored at -20° C. until they were used for the Western blot analysis. For total cell lysates, cell pellets were resuspended with 100 μL of RIPA buffer (150 mM NaCl, 1% Triton X-100, 0.1% SDS, and 50 mM Tris at pH 8.0) and incubated on ice for 10 minutes. The lysates were centrifuged for 10 minutes at 4° C. at 13,000 rpm and the supernatant solutions were stored at -20° C. until they were used for the Western blot analysis. Western blot analysis: Nuclear extract lysates were separated on 3-8% Tris-Acetate gels (Invitrogen). […]

DNA-PKcs = DNA-PKcs (Homo sapiens, UniProt P78527); details: reference [24]; cited from earlier work
Jurkat cells = experiment: Cell viability assay (CELLTITER 96 AQUEOUS One) in Jurkat cells; assay type: cell-based, human; details: NU7441 at varying concentrations, 48 hours
Protocol: as §1

Cabin1 = experiment: Western blot of Cabin1 expression in activated Jurkat cells; assay type: cell-based, human; details: Jurkat activated with PMA+PHA
Protocol: as §2

## O=c1cc(N2CCOCC2)oc2c(-c3cccc4c3sc3ccccc34)cccc12 [NU7441]
PBMC
  cellular viability of PBMC: did not affect cellular viability; also recorded: does not reduce cell viability
Th17 T cells
  Th17 differentiation (markers Batf3, RoRyt, IL22, TGFBeta, IL17): suppressing a Th17 environment
IL-2; PMA (50 ng/ml)+PHA (1 μg/mL), 24 hours, concentration not stated (FIG. 1B)
  IL-2 secretion: significantly blocked IL-2 secretion
IL-2; 2.5 µM NU7441
  level of IL-2: significantly decreased
IL-2; 5 μM NU7441
  level of IL-2: further decreased
CHK2
  CHK2 phosphorylation at Thr68: reduced CHK2 phosphorylation
CHK2; listed as NU744
  CHK2 phosphorylation at Thr68: reduced
DNA-PKcs
  inhibition of DNA-PKcs: potent and specific inhibitor
  interference with ATR or ATM activation: does not interfere
Jurkat cells
  viability of Jurkat cells: did not alter the viability; also recorded: no significant reduction in viability
Cabin1
  Cabin1 expression: elevated Cabin1 expression
Cabin1; listed as NU744
  Cabin1 expression: increase in Cabin1 expression
